Experimental data published in PubChem BioAssay AID1963845 (Molecular Pharmacology Branch, DTP, NCI, 2024).

Tested on: 429239-143-T-J1-PDC complex spheroid viability
Assay: Anticancer human tumor 429239-143-T-J1-PDC patient-derived small cell lung carcinoma cell line growth inhibition [POLQ]
Details: for IC50: curve of first compound; for viability, T/C: stronger effect = lower value
Method in brief: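 Three-cell-type spheroids modelling solid tumor plus stroma served as the readout system; POL inhibitors were tested individually and in combination, concentration ranges set by clinical Cmax where known.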

[1] = second compound 0.0316 µM, first compound 0.0316 µM
[2] = second compound 0.0316 µM, first compound 0.1 µM
[3] = second compound 0.0316 µM, first compound 0.316 µM
[4] = second compound 0.0316 µM, first compound 1 µM
[5] = second compound 0.0316 µM, first compound 3.16 µM
[6] = second compound 0.0316 µM, first compound 10 µM
[7] = second compound 0.1 µM, first compound 0.0316 µM
[8] = second compound 0.1 µM, first compound 0.1 µM
[9] = second compound 0.1 µM, first compound 0.316 µM
[10] = second compound 0.1 µM, first compound 1 µM
[11] = second compound 0.1 µM, first compound 3.16 µM
[12] = second compound 0.1 µM, first compound 10 µM
[13] = second compound 0.316 µM, first compound 0.0316 µM
[14] = second compound 0.316 µM, first compound 0.1 µM
[15] = second compound 0.316 µM, first compound 0.316 µM
[16] = second compound 0.316 µM, first compound 1 µM
[17] = second compound 0.316 µM, first compound 3.16 µM
[18] = second compound 0.316 µM, first compound 10 µM
[19] = second compound 1 µM, first compound 0.0316 µM
[20] = second compound 1 µM, first compound 0.1 µM
[21] = second compound 1 µM, first compound 0.316 µM
[22] = second compound 1 µM, first compound 1 µM
[23] = second compound 1 µM, first compound 3.16 µM
[24] = second compound 1 µM, first compound 10 µM
[25] = second compound 3.16 µM, first compound 0.0316 µM
[26] = second compound 3.16 µM, first compound 0.1 µM
[27] = second compound 3.16 µM, first compound 0.316 µM
[28] = second compound 3.16 µM, first compound 1 µM
[29] = second compound 3.16 µM, first compound 3.16 µM
[30] = second compound 3.16 µM, first compound 10 µM
[31] = second compound 10 µM, first compound 0.0316 µM
[32] = second compound 10 µM, first compound 0.1 µM
[33] = second compound 10 µM, first compound 0.316 µM
[34] = second compound 10 µM, first compound 1 µM
[35] = second compound 10 µM, first compound 3.16 µM
[36] = second compound 10 µM, first compound 10 µM
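Further: luminescence signal used as surrogate measure of viable cells; spheroids exposed to compounds for seven days before readout.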
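Wherever viability, T/C is given: 100% = DMSO vehicle control viability as luminescence relative to vehicle.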

For O=c1[nH]cc(F)c(=O)[nH]1 + Nc1ccc(C#CCN(C(=O)Cc2ncc(C(F)(F)F)cc2C(F)(F)F)c2ccc(F)cc2)nn1, the IC50 (second compound 0.0316 µM) was 3240 nM, the IC50 (second compound 0.1 µM) was 3290 nM and the IC50 (second compound 0.316 µM) was 4050 nM. The IC50 (second compound 1 µM) was 4130 nM, the IC50 (second compound 3.16 µM) was 2530 nM and the IC50 (second compound 10 µM) was 3170 nM. The viability, T/C [1] was 98.3%, the viability, T/C [2] was 105% and the viability, T/C [3] was 96.6%. For the same compound, the viability, T/C [4] was 80.8%, the viability, T/C [5] was 50.7% and the viability, T/C [6] was 31.6%. It also gave a viability, T/C [7] of 107%, a viability, T/C [8] of 105% and a viability, T/C [9] of 104%. It also gave a viability, T/C [10] of 81%, a viability, T/C [11] of 51.5% and a viability, T/C [12] of 35.2%. It also gave a viability, T/C [13] of 100%, a viability, T/C [14] of 110% and a viability, T/C [15] of 104%. The viability, T/C [16] was 82.8%, the viability, T/C [17] was 56.7% and the viability, T/C [18] was 30.7%. The viability, T/C [19] was 115%, the viability, T/C [20] was 99.7% and the viability, T/C [21] was 105%. For the same compound, the viability, T/C [22] was 77.9%, the viability, T/C [23] was 56.3% and the viability, T/C [24] was 31.5%. It also gave a viability, T/C [25] of 98.1%, a viability, T/C [26] of 105% and a viability, T/C [27] of 102%. For the same compound, the viability, T/C [28] was 80.2%, the viability, T/C [29] was 43.3% and the viability, T/C [30] was 32.1%. It also gave a viability, T/C [31] of 104%, a viability, T/C [32] of 97.6% and a viability, T/C [33] of 106%. It also gave a viability, T/C [34] of 83.1%, a viability, T/C [35] of 51.1% and a viability, T/C [36] of 34.1%.
CC1COCCN1c1cc(-c2ccnn2C)c2ccnc(-c3ccn[nH]3)c2n1 (stereo not drawn) + Nc1ccc(C#CCN(C(=O)Cc2ncc(C(F)(F)F)cc2C(F)(F)F)c2ccc(F)cc2)nn1 was tested, and the IC50 (second compound 0.0316 µM) was 545 nM, the IC50 (second compound 0.1 µM) was 469 nM and the IC50 (second compound 0.316 µM) was 466 nM. It also gave an IC50 (second compound 1 µM) of 373 nM, an IC50 (second compound 3.16 µM) of 343 nM and an IC50 (second compound 10 µM) of 280 nM. For the same compound, the viability, T/C [1] was 95%, the viability, T/C [2] was 77.8% and the viability, T/C [3] was 68.3%. It also gave a viability, T/C [4] of 33.4%, a viability, T/C [5] of 4.99% and a viability, T/C [6] of 3.79%. For the same compound, the viability, T/C [7] was 91.9%, the viability, T/C [8] was 80.6% and the viability, T/C [9] was 62.9%. The viability, T/C [10] was 27.8%, the viability, T/C [11] was 5.19% and the viability, T/C [12] was 4.25%. The viability, T/C [13] was 91.5%, the viability, T/C [14] was 78.6% and the viability, T/C [15] was 64.7%. It also gave a viability, T/C [16] of 24.5%, a viability, T/C [17] of 5.31% and a viability, T/C [18] of 3.76%. The viability, T/C [19] was 86.8%, the viability, T/C [20] was 72% and the viability, T/C [21] was 56.1%. The viability, T/C [22] was 26.2%, the viability, T/C [23] was 5.38% and the viability, T/C [24] was 4.35%. It also gave a viability, T/C [25] of 87.9%, a viability, T/C [26] of 72.5% and a viability, T/C [27] of 53.1%. The viability, T/C [28] was 26.6%, the viability, T/C [29] was 5.52% and the viability, T/C [30] was 3.58%. It also gave a viability, T/C [31] of 89.4%, a viability, T/C [32] of 71.2% and a viability, T/C [33] of 47.4%. For the same compound, the viability, T/C [34] was 25.8%, the viability, T/C [35] was 4.8% and the viability, T/C [36] was 3.43%.
Work on CC1COCCN1c1cc(C2(S(C)(=N)=O)CC2)nc(-c2ccnc3[nH]ccc23)n1 (stereo not drawn) + Cc1cccc(N(C)C(=O)C2C(O)CCN2c2nc(C)cc(C(F)(F)F)c2C#N)c1 yielded an IC50 (second compound 0.0316 µM) of 2210 nM, an IC50 (second compound 0.1 µM) of 2100 nM and an IC50 (second compound 0.316 µM) of 2020 nM. The IC50 (second compound 1 µM) was 2100 nM, the IC50 (second compound 3.16 µM) was 2320 nM and the IC50 (second compound 10 µM) was 2410 nM. The viability, T/C [1] was 108%, the viability, T/C [2] was 105% and the viability, T/C [3] was 92.9%. For the same compound, the viability, T/C [4] was 77.3%, the viability, T/C [5] was 37.2% and the viability, T/C [6] was 15.9%. For the same compound, the viability, T/C [7] was 105%, the viability, T/C [8] was 106% and the viability, T/C [9] was 96.7%. The viability, T/C [10] was 72.9%, the viability, T/C [11] was 37.6% and the viability, T/C [12] was 16%. For the same compound, the viability, T/C [13] was 101%, the viability, T/C [14] was 99.6% and the viability, T/C [15] was 97.2%. It also gave a viability, T/C [16] of 73.6%, a viability, T/C [17] of 34.9% and a viability, T/C [18] of 17.3%. For the same compound, the viability, T/C [19] was 91.2%, the viability, T/C [20] was 98.9% and the viability, T/C [21] was 89.7%. It also gave a viability, T/C [22] of 75.7%, a viability, T/C [23] of 35.8% and a viability, T/C [24] of 17.7%. It also gave a viability, T/C [25] of 96.9%, a viability, T/C [26] of 97.6% and a viability, T/C [27] of 94.5%. It also gave a viability, T/C [28] of 71.3%, a viability, T/C [29] of 42.6% and a viability, T/C [30] of 18.3%. The viability, T/C [31] was 105%, the viability, T/C [32] was 103% and the viability, T/C [33] was 98.4%. For the same compound, the viability, T/C [34] was 60.2%, the viability, T/C [35] was 50.3% and the viability, T/C [36] was 17.8%.
Work on CNCc1ccc(-c2[nH]c3cc(F)cc4c3c2CCNC4=O)cc1 + COC1C(OC(N)=O)C(O)C(Oc2ccc3c(O)c(NC(=O)c4ccc(O)c(CC=C(C)C)c4)c(=O)oc3c2C)OC1(C)C yielded an IC50 (second compound 0.0316 µM) of 2300 nM, an IC50 (second compound 0.1 µM) of 2400 nM and an IC50 (second compound 0.316 µM) of 2570 nM. It also gave an IC50 (second compound 1 µM) of 2700 nM, an IC50 (second compound 3.16 µM) of 1840 nM and an IC50 (second compound 10 µM) of 1580 nM. For the same compound, the viability, T/C [1] was 95.1%, the viability, T/C [2] was 75% and the viability, T/C [3] was 87.1%. The viability, T/C [4] was 66.5%, the viability, T/C [5] was 43.2% and the viability, T/C [6] was 23.2%. The viability, T/C [7] was 85.5%, the viability, T/C [8] was 101% and the viability, T/C [9] was 80.6%. It also gave a viability, T/C [10] of 65.9%, a viability, T/C [11] of 46.3% and a viability, T/C [12] of 21.4%. The viability, T/C [13] was 102%, the viability, T/C [14] was 85.5% and the viability, T/C [15] was 74.5%. For the same compound, the viability, T/C [16] was 69.6%, the viability, T/C [17] was 49.3% and the viability, T/C [18] was 21.4%. It also gave a viability, T/C [19] of 87.5%, a viability, T/C [20] of 86.9% and a viability, T/C [21] of 79.3%. For the same compound, the viability, T/C [22] was 72.6%, the viability, T/C [23] was 46% and the viability, T/C [24] was 19.7%. For the same compound, the viability, T/C [25] was 87.4%, the viability, T/C [26] was 88.3% and the viability, T/C [27] was 87.1%. For the same compound, the viability, T/C [28] was 59.8%, the viability, T/C [29] was 40.3% and the viability, T/C [30] was 20%. The viability, T/C [31] was 75.3%, the viability, T/C [32] was 81.3% and the viability, T/C [33] was 72.2%. For the same compound, the viability, T/C [34] was 55.1%, the viability, T/C [35] was 39.8% and the viability, T/C [36] was 19%.
